Some results are limits rather than exact numbers.

The target in assay [1] is T1, M-phase inducer phosphatase 3 (Homo sapiens, UniProt P30307).
T1 sequence (P30307 whole entry): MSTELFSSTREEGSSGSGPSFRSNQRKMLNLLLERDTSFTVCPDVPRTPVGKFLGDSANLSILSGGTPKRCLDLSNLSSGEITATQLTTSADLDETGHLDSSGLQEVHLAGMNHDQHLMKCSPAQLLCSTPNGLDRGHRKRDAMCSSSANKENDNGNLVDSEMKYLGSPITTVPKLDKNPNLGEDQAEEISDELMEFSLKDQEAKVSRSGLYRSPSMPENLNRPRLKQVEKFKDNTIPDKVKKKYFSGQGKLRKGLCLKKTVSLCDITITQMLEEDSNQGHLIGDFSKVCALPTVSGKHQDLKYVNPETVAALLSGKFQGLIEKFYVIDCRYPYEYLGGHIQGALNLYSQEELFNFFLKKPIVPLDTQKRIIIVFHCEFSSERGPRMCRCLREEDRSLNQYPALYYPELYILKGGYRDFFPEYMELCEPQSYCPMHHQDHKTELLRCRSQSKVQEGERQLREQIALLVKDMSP
Kind of assay: In vitro inhibitory activity against human Cell division cycle 25 degree C.

Assay [2] deals with T2, M-phase inducer phosphatase 2 (Homo sapiens, UniProt P30305).
T2 sequence (P30305 whole entry): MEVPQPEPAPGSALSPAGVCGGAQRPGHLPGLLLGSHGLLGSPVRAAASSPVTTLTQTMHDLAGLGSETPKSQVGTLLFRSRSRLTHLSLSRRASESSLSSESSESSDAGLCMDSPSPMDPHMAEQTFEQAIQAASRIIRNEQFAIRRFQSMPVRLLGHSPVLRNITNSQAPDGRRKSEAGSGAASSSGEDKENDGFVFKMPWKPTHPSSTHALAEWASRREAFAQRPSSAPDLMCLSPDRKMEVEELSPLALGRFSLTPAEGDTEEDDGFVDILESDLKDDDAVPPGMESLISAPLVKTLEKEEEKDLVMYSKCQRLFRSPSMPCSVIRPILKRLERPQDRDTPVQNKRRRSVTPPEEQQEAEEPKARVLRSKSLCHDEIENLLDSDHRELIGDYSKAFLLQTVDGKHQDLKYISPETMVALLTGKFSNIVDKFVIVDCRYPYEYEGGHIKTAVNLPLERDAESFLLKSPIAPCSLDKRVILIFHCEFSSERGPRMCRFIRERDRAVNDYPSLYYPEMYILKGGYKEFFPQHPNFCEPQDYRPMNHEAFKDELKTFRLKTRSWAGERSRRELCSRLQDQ
Kind of assay: In vitro inhibitory activity against human Cell division cycle 25B.

For the compound `C=C(C)CCC[C@@]1(C)CCC[C@@]2(C)C1=CC[C@H](C)[C@]2(C)C[C@@H](O)C1=CC(=O)O[C@@H]1O` (stereo in doubt; form 2), the IC50 in assay [1] and in assay [2] was more than 2000 µM each time.

For the origin of these results see ChEMBL document CHEMBL1132102, “Dysidiolide and related gamma-hydroxy butenolide compounds as inhibitors of the protein tyrosine phosphatase, CDC25” (Bioorg Med Chem Lett, 1999).
